Measurements from paper PMC4492579, “Potent and Selective Triazole-Based Inhibitors of the Hypoxia-Inducible Factor Prolyl-Hydroxylases with Activity in the Murine Brain” (PLoS ONE, 2015).

Tests used:
HIF target genes = assay: qRT-PCR of HIF target genes in mouse brain; format: in vivo, C57BL/6 mice; conditions: 1 h treatment
Procedure: All animal experiments were performed on male C57BL/6 mice aged 3 months (purchased from Harlan Laboratories, Blackthorn) housed in specific pathogen free conditions with free access to water and standard chow. Mice were injected intraperitonially with the inhibitor (dissolved in Hanks’ buffered saline solution, pH 7.0, 5% DMSO final) or vehicle at the indicated doses for the indicated time as previously described. Tissues from treated mice were harvested and ‘snap frozen’ with liquid nitrogen before being stored at -80°C. For immunoblotting, a portion of the tissues was removed, weighed and homogenised in urea/SDS buffer before being analysed by immunoblotting with HIF1α rabbit polyclonal antibody (10006421, Cayman Chemical, 1:1000) or HIF2α rabbit polyclonal antibody (PM9 [27], 1:1000). […]
Genomic DNA were removed from total RNA preparation using the TURBO DNA-free kit (AM1907, Life Technologies) according to manufacturer’s protocol. […] Relative quantifications were calculated using the ∆∆Ct method normalised to β-actin. […]
To investigate whether the induction of HIFα in the mouse brain has an effect on HIF target genes, we performed quantitative real-time PCR (qRT-PCR) analyses on HIF target genes (including those involved in angiogenesis, i.e. Vegfa, Adm and Il6).

JMJD2C (KDM4C) = molecular target: T1, JMJD2C (KDM4C) (Homo sapiens, UniProt Q9H3R0); set-up: method as in PMID 26682036; conditions: cited from earlier work
T1 sequence (Q9H3R0 1-1056): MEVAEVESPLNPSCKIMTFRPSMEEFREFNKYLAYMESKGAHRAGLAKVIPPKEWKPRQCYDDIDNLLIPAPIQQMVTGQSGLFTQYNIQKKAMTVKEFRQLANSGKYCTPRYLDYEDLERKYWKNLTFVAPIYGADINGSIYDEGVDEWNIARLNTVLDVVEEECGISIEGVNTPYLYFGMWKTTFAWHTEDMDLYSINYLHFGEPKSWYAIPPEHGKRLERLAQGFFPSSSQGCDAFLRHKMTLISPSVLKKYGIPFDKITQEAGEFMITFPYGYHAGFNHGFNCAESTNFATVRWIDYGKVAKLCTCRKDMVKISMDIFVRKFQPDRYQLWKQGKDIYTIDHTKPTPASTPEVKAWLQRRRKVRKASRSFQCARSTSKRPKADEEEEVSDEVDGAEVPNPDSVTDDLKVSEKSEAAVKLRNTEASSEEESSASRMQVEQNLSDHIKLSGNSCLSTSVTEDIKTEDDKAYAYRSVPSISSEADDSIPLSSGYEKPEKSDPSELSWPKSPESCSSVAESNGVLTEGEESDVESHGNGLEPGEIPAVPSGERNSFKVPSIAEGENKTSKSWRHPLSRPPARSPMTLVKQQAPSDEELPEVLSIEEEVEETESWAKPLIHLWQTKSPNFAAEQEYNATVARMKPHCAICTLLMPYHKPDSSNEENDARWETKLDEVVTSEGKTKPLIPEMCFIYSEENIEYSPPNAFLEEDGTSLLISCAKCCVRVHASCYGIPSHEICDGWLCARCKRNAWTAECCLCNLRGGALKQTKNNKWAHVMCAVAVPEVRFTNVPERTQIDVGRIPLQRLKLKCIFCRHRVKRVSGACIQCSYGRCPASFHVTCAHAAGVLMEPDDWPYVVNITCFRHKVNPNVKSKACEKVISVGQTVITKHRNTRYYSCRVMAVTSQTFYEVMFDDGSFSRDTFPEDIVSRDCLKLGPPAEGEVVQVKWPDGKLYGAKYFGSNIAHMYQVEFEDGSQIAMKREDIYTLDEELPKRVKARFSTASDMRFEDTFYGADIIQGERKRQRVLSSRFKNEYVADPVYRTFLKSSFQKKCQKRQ

Compound	mRNA levels of HIF target genes Bnip3, Ldha and Il6 in mouse brain (HIF target genes)	mRNA levels of HIF target genes Epo, Vegfa and Adm in mouse brain (HIF target genes)	IC50 (JMJD2C (KDM4C)) [µM]
CC(C)(C)OC(=O)c1ccc(-n2[nH]cc(-n3ccnn3)c2=O)nc1 [IOX4, t-Butyl 6-(5-oxo-4-(1H-1,2,3-triazol-1-yl)-2,5-dihydro-1H-pyrazol-1-yl)nicotinate]	remain unaffected	induced in a dose-dependent manner	
O=C(O)CNC(=O)c1c(O)c2ccccc2n(Cc2ccccc2)c1=O [IOX2]			100
